Assays:
Assay in all cases: relative viability (nuclei count vs DMSO), 5 days (fraction); higher = more cells survive
Bromopyruvate + AZD7762 = compound: C(C(=O)C(=O)O)Br [Bromopyruvate] + NC(=O)Nc1cc(-c2cccc(F)c2)sc1C(=O)N[C@H]1CCCNC1 [AZD7762] (partner 0.2 µM)
How it was run: (§1)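 Relative viability equals treated-well nuclei counts divided by vehicle-well nuclei counts. Counts came from 4× images of lung cancer cell lines grown in 1536-well plates for 5 days after pin-tool dosing on the day after seeding. Dosing used one drug alone or a fixed anchor-drug dose plus five library-drug doses (not always all listed) in √10 steps, and values are medians of duplicate plates.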

[1] = compound: C(C(=O)C(=O)O)Br [Bromopyruvate] + CC(=O)c1c(C)c2cnc(Nc3ccc(N4CCNCC4)cn3)nc2n(C2CCCC2)c1=O [Palbociclib] (partner 0.5 µM)
How it was run: as §1

[2] = compound: CC(O)(CS(=O)(=O)c1ccc(F)cc1)C(=O)Nc1ccc(C#N)c(C(F)(F)F)c1 [Bicalutamide] + Nc1ncn([C@H]2C[C@H](O)[C@@H](CO)O2)c(=O)n1 [Decitabine] (partner 2 µM)
How it was run: as §1

[3] = compound: CC(O)(CS(=O)(=O)c1ccc(F)cc1)C(=O)Nc1ccc(C#N)c(C(F)(F)F)c1 [Bicalutamide] + C[C@@H](Oc1cc(-c2cnn(C3CCNCC3)c2)cnc1N)c1c(Cl)ccc(F)c1Cl [Crizotinib] (partner 1 µM)
How it was run: as §1

Cell Line	relative viability (Bromopyruvate + AZD7762; first compound 1 µM)	relative viability (Bromopyruvate + AZD7762; first compound 3.162 µM)	relative viability (Bromopyruvate + AZD7762; first compound 10 µM)	relative viability (Bromopyruvate + AZD7762; first compound 31.62 µM)	relative viability (Bromopyruvate + AZD7762; first compound 100 µM)	relative viability ([1]; first compound 1 µM)	relative viability ([1]; first compound 3.162 µM)	relative viability ([1]; first compound 10 µM)	relative viability ([1]; first compound 31.62 µM)	relative viability ([1]; first compound 100 µM)	relative viability ([2]; first compound 0.08 µM)	relative viability ([2]; first compound 0.253 µM)	relative viability ([2]; first compound 0.8 µM)	relative viability ([2]; first compound 2.53 µM)	relative viability ([3]; first compound 0.08 µM)	relative viability ([3]; first compound 0.253 µM)	relative viability ([3]; first compound 0.8 µM)	relative viability ([3]; first compound 2.53 µM)
LU99A	0.318	0.364	0.346	0.362	0.341	0.404	0.414	0.478	0.493	0.2	0.96	0.896	1.02	0.719	0.65	0.451	0.602	0.362
ABC-1	0.532	0.995	0.951	0.834	0.734	0.662				0.792	1.25	0.929	1.23	0.847	1.15	1.09	1.16	0.848
NCI-H2170	0.923	0.989	1.19	0.893	0.854	0.365	0.421	0.389	0.396	0.411	0.442	0.441	0.515	0.496	1.12	1.18	1.39	1.18
NCI-H1299															0.969	0.93	0.957	0.911
EBC-1															0.166	0.185	0.186	0.185
NCI-H2405	0.998	0.888	0.887		0.254	0.51	0.53	0.549		0.458	0.708	0.689	0.787	0.716	0.913	0.817	0.962	0.837
NCI-H2009						0.208	0.214	0.227	0.179	0.0903	0.356	0.37	0.405	0.38	1.01	1.01	1.04	0.973
NCI-H441	1.01	1.18	1.06	0.978	1.14	0.242	0.242	0.256	0.222	0.255	0.264	0.23	0.22	0.257	0.917		0.598	0.61
PC-14	0.483	0.401	0.407	0.412	0.384	0.577	0.538	0.686	0.573	0.411	0.243	0.182	0.239	0.204	0.958	0.972	0.899	0.904
NCI-H2342	0.397	0.436	0.451	0.47	0.481	0.487	0.55	0.476	0.485	0.458	0.742	0.717	0.756	0.843				
NCI-H661						0.401	0.387	0.378	0.403	0.428	0.546	0.51	0.557	0.549	1.14		0.881	0.989
COR-L23						0.239	0.283	0.232	0.255	0.178	0.476	0.389	0.455	0.367	0.678	0.552	0.703	0.449
COR-L 105						0.404	0.396	0.415	0.374	0.429	0.765	0.6	0.698	0.63	0.874	0.728	0.661	0.448
NCI-H1793	0.452	0.536	0.484	0.428	0.522	0.291	0.354	0.325	0.365	0.341	0.524		0.574	0.423				
NCI-H596	1.08	1.28	1.12	1.17	0.993						0.975	1.02	1.09	0.983	0.898	1.51	1.08	1.04
A549											0.351	0.271	0.259	0.248	0.738	0.708	0.917	0.485
NCI-H520						0.235	0.209	0.228	0.232	0.267	0.576	0.52	0.646	0.51	0.836	0.681	0.93	0.577
NCI-H1563															0.863	0.861	0.794	0.743
NCI-H1395	0.447	0.398	0.426	0.414	0.42	0.551	0.531	0.724	0.614	0.662	0.754	0.672	0.787	0.806				
NCI-H2228						0.791	0.9	0.665	0.85	0.775					0.443	0.52	0.754	0.463
NCI-H2023						0.406	0.382	0.4	0.411	0.385	0.267	0.227	0.248	0.233	0.691	0.601	0.679	0.462
SW 900	0.629	0.528	0.519	0.564	0.66	0.524	0.486	0.536	0.589	0.5	0.416	0.413	0.5	0.476				
IA-LM															1.14	0.819	0.88	1.02
SW 1573						0.401	0.395	0.373	0.266	0.0467	0.664	0.457	0.659	0.441	0.972	0.761	1.08	0.721
NCI-H1703	0.119	0.124	0.138	0.13	0.0978										0.621	0.511	0.624	0.397
NCI-H1648	0.671	0.721	0.713	0.623	0.551	0.211	0.242	0.283	0.298	0.328			0.475	0.458				
